Test results as given in US12491185B2, “Inhibitors of mPTP” (NRG Therapeutics Ltd, priority 2023, dated 2025).

Test system: mPTP
Assay: mPTP activity (Ca2+ retention) assay in isolated rat liver mitochondria
Type: biochemical
Conditions: examples tested by different contract research organisations, believed comparable
Source text: Pharmacological inhibition or modulation of the mPTP can be measured in well characterised ‘Ca^2+ retention’ assays performed in isolated mitochondria. In vitro, isolated mitochondria rapidly sequester exogenous Ca^2+ until the intramitochondrial Ca^2+ concentration reaches the threshold for mPTP activation. Once the pore is activated, mitochondrial integrity is compromised and the stored Ca^2+ is released. The distribution of Ca^2+ between extra- and intra-mitochondrial compartments can be measured in real time with the use of membrane-impermeant Ca^2+ sensitive fluorescent dyes. Depending on the configuration of the assay, inhibition or modulation of the mPTP either delays the opening of the pore or increases the concentration of Ca^2+ required to induce mPTP opening.
MPTP activity was measured in mitochondria freshly isolated from female Sprague Dawley (250 to 300 gram) rat livers using the following method. Cervical dislocation was performed on the rat. The liver was then perfused in-situ with −40 ml cold Dulbecco's Phosphate Buffered Saline (DPBS) prior to dissection and transferred into 30 ml Isolation Buffer (250 mM Sucrose, 10 mM KCl, 1 mM EGTA, 1 mM EDTA, 25 mM HEPES, adjusted to pH 7.5 with 1M NaOH). Each lobe of the liver was then removed from the buffer, minced using tweezers and a scalpel into −5 mm pieces then transferred into a 50 ml Potterton dounce homogenization tube on ice containing 30 ml ice-cold centrifugation buffer (300 mM Trehalose, 25 mM HEPES, 1 mM EGTA, 1 mM EDTA, 10 mM KCl, adjusted to pH 7.5 with 1M NaOH and supplemented with 0.1% bovine serum albumin (BSA) and complete protease inhibitor cocktail (one tablet of inhibitor per 50 mls of buffer). Homogenisation was carried out using a teflon pestle at 1800 rpm. The slurry was centrifuged at 800 g for 10 min at 4° C., then the supernatant centrifuged at 10,000 g for 10 min. The pellet was washed once with FLIPR assay buffer (75 mM Mannitol, 25 mM Sucrose, 5 mM Potassium Phosphate Monobasic, 20 mM Tris base, 100 mM KCl, 0.1% BSA adjusted to pH 7.4 with 5M HCl) centrifuged again, then resuspended in FLIPR assay buffer to a concentration of 8.8 mg/ml protein.
Tested compounds (10 mM stock in DMSO) were serially diluted in DMSO in half log steps to generate 10 test concentrations (final concentrations in assay 30 μM to 1 nM). An intermediate dilution of 5 μl DMSO samples into 247 μl FLIPR assay buffer was carried out prior to transfer of 5 μl into duplicate wells of a 384 well polypropylene assay plate. Control wells were 0.5% (v/v) DMSO and 5 μM cyclosporin A.
A stock mitochondria/Fluo5N assay solution was prepared in 5.6 ml FLIPR assay buffer (at RT) supplemented with succinate disodium salt (10 mM), rotenone (1 μM), Fluo5N pentapotassium salt (2 μM) and 1 ml mitochondria suspension, then transferred (15 μl) into the assay plate containing test compounds and incubated for 10 min at RT. Assay plates were processed for fluorescence detection on either a FLIPR Tetra (Molecular Devices) or CLARIOstar (BMG) plate reader. For kinetic fluorescence detection on the FLIPR, dye fluorescence was measured every 3 sec for a total of 10 min. After 12 sec, a 2.5 μl bolus of CaCl2 (75 μM) was added from a source plate containing 675 μM CaCl2 in FLIPR assay buffer. Alternatively, the 2.5 μl addition of CaCl2 was performed using a Viaflow 384, plates were incubated at RT for 10 min, and dye fluorescence measured after 10 min on the CLARIOstar plate reader. pIC50 values for tested compounds were calculated using the fluorescence value collected at the 10 min timepoint on either plate reader, with % inhibition calculated using the DMSO control and cyclosporin A values as 0 and 100% respectively.

Row | mPTP Rat liver pIC50 | Structure (SMILES)
1 | 6.58 | Cn1nc(C(=O)NCC(Cc2ccc(F)cc2F)C2CC2)[nH]c1=O (centres unmarked) [Example 93, N-(2-Cyclopropyl-3-(2,4-difluorophenyl)propyl)-1-methyl-5-oxo-4,5-dihydro-1H-1,2,4-triazole-3-carboxamide]
2 | 5.77 | Cc1cccc(CC2(CNC(=O)c3nn(C)c(=O)[nH]3)CCC2)c1F [Example 94, N-((1-(2-Fluoro-3-methylbenzyl)cyclobutyl)methyl)-1-methyl-5-oxo-4,5-dihydro-1H-1,2,4-triazole-3-carboxamide]
3 | 5.66 | Cn1nc(C(=O)NC[C@@H](Cc2ccc(F)cc2F)C2CC2)[nH]c1=O [Example 97, (S)—N-(2-cyclopropyl-3-(2,4-difluorophenyl)propyl)-1-methyl-5-oxo-4,5-dihydro-1H-1,2,4-triazole-3-carboxamide]
4 | <4.57 | Cn1nc(C(=O)NCC2(Cc3ccc(F)cc3OC(F)(F)F)CCC2)[nH]c1=O [Example 102, N-((1-(4-fluoro-2-(trifluoromethoxy)benzyl)cyclobutyl)methyl)-1-methyl-5-oxo-4,5-dihydro-1H-1,2,4-triazole-3-carboxamide]
5 | <4.57 | Cn1nc(C(=O)NCC(Cc2ccc(F)cc2F)C2CCCC2)[nH]c1=O (centres unmarked) [Example 103, N-(2-cyclopentyl-3-(2,4-difluorophenyl)propyl)-1-methyl-5-oxo-4,5-dihydro-1H-1,2,4-triazole-3-carboxamide]
6 | <4.57 | Cn1nc(C(=O)NCC2(Cc3ccc(C(F)(F)F)cc3F)CCC2)[nH]c1=O [Example 104, N-((1-(2-fluoro-4-(trifluoromethyl)benzyl)cyclobutyl)methyl)-1-methyl-5-oxo-4,5-dihydro-1H-1,2,4-triazole-3-carboxamide]
7 | <4.57 | O=C(NCC1(Cc2ccc(F)cc2F)CCC1)c1nnc(C(F)(F)F)[nH]1 [Example 105, N-((1-(2,4-difluorobenzyl)cyclobutyl)methyl)-5-(trifluoromethyl)-4H-1,2,4-triazole-3-carboxamide]
8 | <4.57 | CSc1ccc(CC2(CNC(=O)c3nn(C)c(=O)[nH]3)CCC2)cc1 [Example 106, 1-methyl-N-((1-(4-(methylthio)benzyl)cyclobutyl)methyl)-5-oxo-4,5-dihydro-1H-1,2,4-triazole-3-carboxamide]
9 | <4.57 | Cn1nc(C(=O)NCC2(Cc3ccc(F)cc3F)CCC2)n(C)c1=O [Example 107, N-((1-(2,4-difluorobenzyl)cyclobutyl)methyl)-1,4-dimethyl-5-oxo-4,5-dihydro-1H-1,2,4-triazole-3-carboxamide]
10 | <4.57 | Cc1cccc(C)c1CC1(CNC(=O)c2nn(C)c(=O)[nH]2)CCC1 [Example 108, N-((1-(2,6-dimethylbenzyl)cyclobutyl)methyl)-1-methyl-5-oxo-4,5-dihydro-1H-1,2,4-triazole-3-carboxamide]
11 | <4.57 | Cn1nc(C(=O)NCC2(Cc3cccc(C(F)(F)F)c3)CCC2)[nH]c1=O [Example 110, 1-methyl-5-oxo-N-((1-(3-(trifluoromethyl)benzyl)cyclobutyl)methyl)-4,5-dihydro-1H-1,2,4-triazole-3-carboxamide]
12 | <4.57 | CCc1ccc(CC2(CNC(=O)c3nn(C)c(=O)[nH]3)CCC2)cc1 [Example 111, N-((1-(4-ethylbenzyl)cyclobutyl)methyl)-1-methyl-5-oxo-4,5-dihydro-1H-1,2,4-triazole-3-carboxamide]
13 | <4.57 | CCC(CNC(=O)c1nn(C)c(=O)[nH]1)Cc1cscn1 (centres unmarked) [Example 112, 1-methyl-5-oxo-N-(2-(thiazol-4-ylmethyl)butyl)-4,5-dihydro-1H-1,2,4-triazole-3-carboxamide]
14 | <4.57 | CCC(CNC(=O)c1nn(C)c(=O)[nH]1)Cc1cnn(C)c1 (centres unmarked) [Example 113, 1-methyl-N-(2-((1-methyl-1H-pyrazol-4-yl)methyl)butyl)-5-oxo-4,5-dihydro-1H-1,2,4-triazole-3-carboxamide]
15 | 6.26 | Cn1nc(C(=O)NC[C@H](Cc2ccc(F)c(F)c2)C2CC2)[nH]c1=S [Example 118, (R)-N-(2-cyclopropyl-3-(3,4-difluorophenyl)propyl)-1-methyl-5-thioxo-4,5-dihydro-1H-1,2,4-triazole-3-carboxamide]
16 | 5.9 | Cn1nc(C(=O)NC[C@H](Cc2ccc(F)c(F)c2)C2CC2)[nH]c1=S [Example 119]
17 | 6.51 | Cn1nc(C(=O)NCC2(Cc3ccc(F)cc3F)CCCO2)[nH]c1=O (centres unmarked) [Example 120]
18 | 6.31 | O=C(NCC1(Cc2ccc(F)cc2F)CC12CC2)c1cncc(=O)[nH]1 (centres unmarked) [Example 122]
19 | 7.04 | Cn1nc(C(=O)NCC2(Cc3ccc(F)cc3F)CC23CC3)[nH]c1=O (centres unmarked) [Example 123]

Row | mPTP Rat liver pIC50 | Structure (SMILES)
20 | 6.76 | Cn1nc(C(=O)NC[C@H](Cc2ccccc2)C2CC2)[nH]c1=O [Example 124]
21 | 6.55 | CC[C@H](CNC(=O)c1nn(C)c(=O)[nH]1)Cc1c(F)cc(F)cc1F [Example 125]
22 | <4.57 | Cn1oc(C(=O)NCC2(Cc3ccc(F)cc3F)CCC2)cc1=O [Example 126]
23 | <4.57 | O=C(NCC1(Cc2ccc(F)cc2F)CCC1)c1cn[nH]c(=O)c1 [Example 127]
24 | 6.01 | O=C(NCC1(Cc2ccc(F)cc2F)CCC1)c1cc(O)ccn1 [Example 128]
25 | 6.45 | CCC(F)(CNC(=O)c1nn(C)c(=O)[nH]1)Cc1ccc(F)cc1F (centres unmarked) [Example 129, N-(2-(2,4-difluorobenzyl)-2-fluorobutyl)-1-methyl-5-oxo-4,5-dihydro-1H-1,2,4-triazole-3-carboxamide]
26 | <4.57 | O=C(NCC1(Cc2ccc(F)cc2F)CCC1)c1ccn[nH]c1=O [Example 134, N-((1-(2,4-difluorobenzyl)cyclobutyl)methyl)-3-oxo-2,3-dihydropyridazine-4-carboxamide]
27 | 6.52 | CC[C@@H](Cc1ccccc1)C(C)NC(=O)c1nn(C)c(=O)[nH]1 (some centres unmarked) [Example 135]
28 | 6.39 | O=C(NC[C@H](Cc1ccc(F)cc1F)C1CC1)c1cc(=O)[nH]o1 [Example 136]
29 | 5.58 | O=C(NC[C@H](Cc1ccc(F)cc1F)C1CC1)c1coc(=O)[nH]1 [Example 137]
30 | <4.57 | O=C(NCC1(Cc2ccc(F)cc2F)CCC1)c1c[nH]c(=O)cn1 [Example 138, N-((1-(2,4-difluorobenzyl)cyclobutyl)methyl)-5-oxo-4,5-dihydropyrazine-2-carboxamide]
31 | 5.73 | O=C(NCC1(Cc2ccc(F)c(F)c2)CCC1)c1cncc(=O)[nH]1 [Example 139]
32 | <4.57 | O=C(NCC1(Cc2ccc(F)cc2F)CCC1)c1nnn[nH]1 [Example 140]
33 | 6.44 | CC[C@@H](Cc1ccc(F)cc1F)C(C)NC(=O)c1nn(C)c(=O)[nH]1 (stereo partly drawn) [Example 141, N-[(3S)-3-[(2,4-difluorophenyl)methyl]pentan-2-yl]-1-methyl-5-oxo-4H-1,2,4-triazole-3-carboxamide]
34 | 6.47 | O=C(NC[C@H](Cc1ccc(F)c(F)c1)C1CC1)c1cncc(=O)[nH]1 [Example 143]
35 | <4.57 | CCC(CNC(=O)c1nn(C)c(=O)[nH]1)Cc1ccc2cnccc2c1 (centres unmarked) [Example 144]
36 | <4.57 | O=C(NCC1(Cc2ccc(F)cc2F)CCC1)c1cnc(=O)[nH]c1 [Example 145]
37 | <4.57 | O=C(NC[C@H](Cc1ccc(F)cc1F)C1CC1)c1cnc(=O)[nH]c1 [Example 147]
38 | 6.58 | O=C(NCC1(Cc2cc(F)c(F)cc2F)CCC1)c1cncc(=O)[nH]1 [Example 148]
